Activity calls are given as the source filed them.

For assay [1], the target named is T1, Short transient receptor potential channel 4 (Mus musculus, UniProt Q9QUQ5).
T1 sequence (Q9QUQ5 whole entry): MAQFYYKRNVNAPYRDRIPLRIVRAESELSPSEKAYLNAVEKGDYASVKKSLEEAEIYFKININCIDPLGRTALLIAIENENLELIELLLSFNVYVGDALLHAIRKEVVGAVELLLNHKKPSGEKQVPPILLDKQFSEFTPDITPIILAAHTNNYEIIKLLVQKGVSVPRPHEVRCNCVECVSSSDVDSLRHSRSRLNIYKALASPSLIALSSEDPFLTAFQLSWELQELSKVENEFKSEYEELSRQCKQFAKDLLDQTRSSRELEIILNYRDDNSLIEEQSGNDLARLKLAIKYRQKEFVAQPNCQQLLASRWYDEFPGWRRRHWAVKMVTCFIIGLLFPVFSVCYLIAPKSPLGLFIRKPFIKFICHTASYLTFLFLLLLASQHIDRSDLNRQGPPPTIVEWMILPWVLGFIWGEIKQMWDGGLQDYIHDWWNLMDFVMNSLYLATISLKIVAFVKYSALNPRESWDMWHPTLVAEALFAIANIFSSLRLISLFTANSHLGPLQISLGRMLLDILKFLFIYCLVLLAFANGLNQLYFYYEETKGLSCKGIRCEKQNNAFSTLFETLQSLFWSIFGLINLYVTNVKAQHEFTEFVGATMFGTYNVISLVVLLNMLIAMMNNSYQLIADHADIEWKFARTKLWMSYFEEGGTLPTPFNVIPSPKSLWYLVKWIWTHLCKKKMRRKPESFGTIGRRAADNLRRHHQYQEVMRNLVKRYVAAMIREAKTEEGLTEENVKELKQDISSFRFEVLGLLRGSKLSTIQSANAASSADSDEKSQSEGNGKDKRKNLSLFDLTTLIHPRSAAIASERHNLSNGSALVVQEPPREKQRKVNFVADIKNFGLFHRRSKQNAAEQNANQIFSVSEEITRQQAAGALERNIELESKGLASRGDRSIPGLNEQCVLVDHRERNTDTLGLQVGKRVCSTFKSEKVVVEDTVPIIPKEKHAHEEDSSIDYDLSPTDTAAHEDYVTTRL
Put plainly: TRPC4 positive allosteric modulators, dose response, cell-based, HEK293 TRPC4/mu-opioid, Fluo-4 calcium, EC20 DAMGO (AID 434941).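 Also: HEK293 cells coexpressing TRPC4 and mu opioid receptor stimulated by EC20 DAMGO.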 Format: functional.

Assay [2] relates to Streptococcus sp. 'group A'. The assay is described as follows: growth inhibition of control SK(-) GAS strain, dose response, counter-screen for streptokinase expression inhibitor project, luminescence, kanamycin, BacTiterGlo, confirmation (AID 1900). Type of assay: functional, organism-based. A general note: Counterscreens check selectivity or assay interference.
The target of the next assay is NS3 (Hepatitis C virus, UniProt A3EZJ3). Put plainly: PubChem AID 2173. On the set-up: species or system Hepacivirus hominis.
NS3, sequence (A3EZJ3 whole entry): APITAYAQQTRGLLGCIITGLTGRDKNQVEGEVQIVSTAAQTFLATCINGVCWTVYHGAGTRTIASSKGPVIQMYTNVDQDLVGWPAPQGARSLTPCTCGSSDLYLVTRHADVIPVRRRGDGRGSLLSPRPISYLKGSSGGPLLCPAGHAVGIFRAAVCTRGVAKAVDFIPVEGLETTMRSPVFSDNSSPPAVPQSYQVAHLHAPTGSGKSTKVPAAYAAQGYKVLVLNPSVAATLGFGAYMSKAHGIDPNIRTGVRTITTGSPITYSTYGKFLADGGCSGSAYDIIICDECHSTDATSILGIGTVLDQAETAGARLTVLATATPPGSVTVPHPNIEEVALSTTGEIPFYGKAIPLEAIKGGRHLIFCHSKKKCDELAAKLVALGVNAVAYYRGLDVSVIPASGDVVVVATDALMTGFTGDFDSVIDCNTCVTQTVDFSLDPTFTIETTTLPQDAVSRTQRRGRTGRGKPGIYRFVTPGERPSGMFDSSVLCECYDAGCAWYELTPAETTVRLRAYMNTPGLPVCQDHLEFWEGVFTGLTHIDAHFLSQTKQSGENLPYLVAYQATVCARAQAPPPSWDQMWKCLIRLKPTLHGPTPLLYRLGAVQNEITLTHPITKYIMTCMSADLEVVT
The test system of another assay is Streptococcus. The assay is described as follows: Group A Streptococcus viability loss, dose response, counter-screen for streptokinase expression inhibitor project, luminescence, BacTiterGlo (AID 1915).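 Also: potency for reduction of bacterial viability or growth.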 Format: functional, organism-based.
The target of another assay is T2, Caspase-3 (Homo sapiens, UniProt P42574).
T2 sequence (P42574 whole entry): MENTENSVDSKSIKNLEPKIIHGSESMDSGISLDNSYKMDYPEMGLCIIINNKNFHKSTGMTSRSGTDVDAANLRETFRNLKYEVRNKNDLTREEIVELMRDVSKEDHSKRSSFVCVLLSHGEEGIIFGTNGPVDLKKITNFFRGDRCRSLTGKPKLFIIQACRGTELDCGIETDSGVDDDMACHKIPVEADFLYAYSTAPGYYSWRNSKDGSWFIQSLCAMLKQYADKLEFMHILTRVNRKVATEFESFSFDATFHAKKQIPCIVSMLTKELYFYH
The assay is described as follows: procaspase-3 activators, dose response, biochemical, absorbance (AID 489014).

Another assay concerns the target Caspase-7 (Homo sapiens, UniProt P55210). The assay is described as follows: procaspase-7 activators, dose response, counter-screen for procaspase-3 activator project, biochemical, absorbance (AID 489013).
The next assay concerns INS1. Put plainly: beta cell apoptosis inhibitors, cytokine rescue, dose response, luminescence, retest (AID 449756).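 Also: cell death triggered by IL-1 beta plus TNF-alpha plus IFN-gamma mixture; protective hits raise ATP signal compared with cytokine alone wells.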 Format: functional, cell-based. The settings on record: Rattus norvegicus, INS1.
The next assay has as its target Albumin (Bos taurus, UniProt P02769). Put plainly: Counterscreen for inhibitors of T-cell receptor (TCR)-CD3 interaction: Fluorescence-based biochemical high throughput dose response assay to identify inhibitors of T-cell receptor (TCR)-CD3 interaction using a TAMRA-labeled BSA probe. Type of assay: functional.
The target of the next assay is Mu-type opioid receptor (Homo sapiens, UniProt P35372). The assay is described as follows: SAR Analysis of Antagonists of the MOR Receptor using an Image-Based Assay - Set 3. [Related pubchem assays (depositor defined):AID1777, AID1785, AID1786, AID1966, AID2133, AID2136, AID2284, AID2285, AID2420]. Type of assay: functional.
Mu-type opioid receptor, sequence (P35372 whole entry): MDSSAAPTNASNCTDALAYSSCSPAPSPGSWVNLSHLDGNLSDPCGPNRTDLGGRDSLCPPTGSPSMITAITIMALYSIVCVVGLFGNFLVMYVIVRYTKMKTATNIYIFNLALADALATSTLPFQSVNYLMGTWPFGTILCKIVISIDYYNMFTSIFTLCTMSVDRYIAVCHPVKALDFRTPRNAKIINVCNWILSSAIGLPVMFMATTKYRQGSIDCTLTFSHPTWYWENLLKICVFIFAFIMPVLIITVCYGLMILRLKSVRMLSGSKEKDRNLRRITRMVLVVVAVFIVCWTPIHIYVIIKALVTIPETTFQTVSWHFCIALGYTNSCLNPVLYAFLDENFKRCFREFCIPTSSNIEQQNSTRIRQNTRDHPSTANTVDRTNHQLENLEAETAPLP
The target in assay [3] is T3, Kappa-type opioid receptor (Homo sapiens, UniProt P41145). The assay is described as follows: SAR analysis of small molecule antagonists of the kappa opioid receptor via a luminescent beta-arrestin assay - Set 6. [Related pubchem assays (depositor defined):AID1777, AID1778, AID1785, AID1786, AID1966, AID2133, AID2136, AID2285]. Type of assay: functional.
T3 sequence (P41145 whole entry): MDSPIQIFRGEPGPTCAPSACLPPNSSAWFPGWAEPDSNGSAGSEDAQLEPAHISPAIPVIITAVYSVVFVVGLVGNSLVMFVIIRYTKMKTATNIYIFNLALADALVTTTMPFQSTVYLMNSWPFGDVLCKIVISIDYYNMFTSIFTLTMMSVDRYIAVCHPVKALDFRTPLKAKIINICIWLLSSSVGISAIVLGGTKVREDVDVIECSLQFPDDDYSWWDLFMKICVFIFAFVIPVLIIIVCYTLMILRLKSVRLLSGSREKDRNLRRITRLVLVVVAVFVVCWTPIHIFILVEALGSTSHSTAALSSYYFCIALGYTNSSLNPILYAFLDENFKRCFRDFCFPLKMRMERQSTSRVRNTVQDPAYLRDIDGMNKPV
In assay [4] the target is T3, Kappa-type opioid receptor. The assay is described as follows: SAR analysis of small molecule antagonists of the kappa opioid receptor via a luminescent beta-arrestin assay - Set 4. [Related pubchem assays (depositor defined):AID1777, AID1778, AID1785, AID1786, AID1966, AID2133, AID2136, AID2285]. Format: functional.
In assay [5] the target is Delta-type opioid receptor (Homo sapiens, UniProt P41143). The assay is described as follows: SAR Analysis of Antagonists of the DOR Receptor using an Image-Based Assay - Set 3. [Related pubchem assays (depositor defined):AID1777, AID1785]. Type of assay: functional.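 Also: U2OS cells expressing DOR1 and beta-arrestin GFP stimulated with 100 nM SNC80; imaging of GFP-tagged beta-arrestin moving into spots after receptor activation.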
Delta-type opioid receptor, sequence (P41143 whole entry): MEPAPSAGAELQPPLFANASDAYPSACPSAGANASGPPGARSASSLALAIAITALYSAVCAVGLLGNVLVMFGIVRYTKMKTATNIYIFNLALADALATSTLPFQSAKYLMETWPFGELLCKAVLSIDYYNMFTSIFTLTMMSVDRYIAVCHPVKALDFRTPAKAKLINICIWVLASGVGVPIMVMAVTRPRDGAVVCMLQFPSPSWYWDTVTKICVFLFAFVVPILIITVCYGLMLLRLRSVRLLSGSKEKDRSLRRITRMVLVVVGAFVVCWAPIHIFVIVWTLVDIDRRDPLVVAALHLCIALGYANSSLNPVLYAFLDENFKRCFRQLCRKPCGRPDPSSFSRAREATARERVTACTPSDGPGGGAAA
The target in assay [6] is T3, Kappa-type opioid receptor. Put plainly: SAR analysis of Antagonists of the Kappa Opioid Receptor (KOR) using an Image-Based Assay - Set 4. [Related pubchem assays (depositor defined):AID1777, AID1785]. Format: functional.
For the next assay, the target named is Beta-galactosidase (Escherichia coli, UniProt Q8VNN2). Put plainly: beta-galactosidase enzyme inhibitors and activators, dose response, artefact control for CCR6 antagonist project, biochemical, E. coli enzyme, set 3 (AID 504712). Type of assay: functional.
Beta-galactosidase, sequence (Q8VNN2 whole entry): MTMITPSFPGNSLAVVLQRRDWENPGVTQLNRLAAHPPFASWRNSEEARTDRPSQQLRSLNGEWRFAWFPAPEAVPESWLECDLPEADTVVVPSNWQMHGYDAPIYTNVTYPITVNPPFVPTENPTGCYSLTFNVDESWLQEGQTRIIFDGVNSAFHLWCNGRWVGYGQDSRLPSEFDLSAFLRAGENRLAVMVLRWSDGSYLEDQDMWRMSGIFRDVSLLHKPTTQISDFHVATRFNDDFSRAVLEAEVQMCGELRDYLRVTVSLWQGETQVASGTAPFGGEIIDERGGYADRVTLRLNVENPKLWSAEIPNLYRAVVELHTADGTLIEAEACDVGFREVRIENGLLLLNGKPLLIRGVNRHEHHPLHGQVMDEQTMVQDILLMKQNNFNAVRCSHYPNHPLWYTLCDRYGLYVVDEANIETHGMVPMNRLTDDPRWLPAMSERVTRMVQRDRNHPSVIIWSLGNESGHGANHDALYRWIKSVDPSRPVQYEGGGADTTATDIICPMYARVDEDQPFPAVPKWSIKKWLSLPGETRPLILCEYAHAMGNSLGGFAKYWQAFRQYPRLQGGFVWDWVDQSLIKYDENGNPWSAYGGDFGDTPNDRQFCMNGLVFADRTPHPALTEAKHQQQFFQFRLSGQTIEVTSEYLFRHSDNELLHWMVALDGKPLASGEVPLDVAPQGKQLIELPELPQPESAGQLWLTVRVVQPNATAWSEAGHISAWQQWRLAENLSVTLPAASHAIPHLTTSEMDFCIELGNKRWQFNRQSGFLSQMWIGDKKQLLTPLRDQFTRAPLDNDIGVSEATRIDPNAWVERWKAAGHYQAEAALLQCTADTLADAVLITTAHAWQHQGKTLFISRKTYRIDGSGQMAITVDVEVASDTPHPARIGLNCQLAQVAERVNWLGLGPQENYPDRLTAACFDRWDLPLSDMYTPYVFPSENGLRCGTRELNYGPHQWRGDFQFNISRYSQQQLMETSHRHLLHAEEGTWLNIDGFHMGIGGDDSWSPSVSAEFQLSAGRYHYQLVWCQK
In the next assay the target is Nonstructural protein 1 (Influenza A virus, UniProt Q194T2). Format: functional, Influenza A virus (A/California/07/2009(H1N1)).
Nonstructural protein 1, sequence (Q194T2 whole entry): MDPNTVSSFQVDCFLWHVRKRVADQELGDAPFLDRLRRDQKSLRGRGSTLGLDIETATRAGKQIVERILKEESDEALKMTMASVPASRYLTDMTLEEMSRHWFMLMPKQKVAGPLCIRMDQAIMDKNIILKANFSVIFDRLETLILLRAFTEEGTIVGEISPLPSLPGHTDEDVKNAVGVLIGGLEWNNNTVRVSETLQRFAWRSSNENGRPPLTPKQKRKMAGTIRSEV
The target of a further assay is T4, Hexokinase HKDC1 (Homo sapiens, UniProt Q2TB90).
T4 sequence (Q2TB90 whole entry): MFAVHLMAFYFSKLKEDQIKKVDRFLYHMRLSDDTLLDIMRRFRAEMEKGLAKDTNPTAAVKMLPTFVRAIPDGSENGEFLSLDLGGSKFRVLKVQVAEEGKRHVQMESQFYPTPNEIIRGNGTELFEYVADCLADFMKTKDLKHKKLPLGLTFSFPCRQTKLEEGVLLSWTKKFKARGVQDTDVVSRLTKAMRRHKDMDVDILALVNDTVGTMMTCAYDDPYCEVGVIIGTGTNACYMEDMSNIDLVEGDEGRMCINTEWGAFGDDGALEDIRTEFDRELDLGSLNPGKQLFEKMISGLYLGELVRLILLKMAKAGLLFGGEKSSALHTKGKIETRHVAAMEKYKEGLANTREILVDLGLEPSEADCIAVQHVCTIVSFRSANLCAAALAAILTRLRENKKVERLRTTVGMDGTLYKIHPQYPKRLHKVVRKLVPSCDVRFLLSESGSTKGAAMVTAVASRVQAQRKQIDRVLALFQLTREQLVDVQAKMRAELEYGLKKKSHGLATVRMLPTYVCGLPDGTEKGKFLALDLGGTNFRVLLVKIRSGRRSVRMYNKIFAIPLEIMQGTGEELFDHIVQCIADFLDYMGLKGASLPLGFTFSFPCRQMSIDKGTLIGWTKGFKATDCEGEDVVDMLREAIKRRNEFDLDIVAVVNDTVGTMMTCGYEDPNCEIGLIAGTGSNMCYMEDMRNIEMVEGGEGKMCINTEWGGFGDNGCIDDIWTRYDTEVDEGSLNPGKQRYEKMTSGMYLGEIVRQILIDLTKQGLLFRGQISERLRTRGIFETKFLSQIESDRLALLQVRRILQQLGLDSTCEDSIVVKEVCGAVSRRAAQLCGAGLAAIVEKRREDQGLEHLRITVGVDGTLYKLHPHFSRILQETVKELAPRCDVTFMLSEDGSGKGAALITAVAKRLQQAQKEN
The assay is described as follows: HKDC1 hexokinase inhibitors, dose response, biochemical, W721R variant (AID 504729). Format: functional.

The nature of assay [7]: cytotoxicity in NIH/3T3 mouse fibroblasts, dose response, cytotoxicity control, cell-based, mouse embryonic fibroblasts, dry powder, set 2 (AID 493247). Format: functional. The settings on record: Fibroblast.

Caspase-7, sequence (P55210 24-198 limits assumed): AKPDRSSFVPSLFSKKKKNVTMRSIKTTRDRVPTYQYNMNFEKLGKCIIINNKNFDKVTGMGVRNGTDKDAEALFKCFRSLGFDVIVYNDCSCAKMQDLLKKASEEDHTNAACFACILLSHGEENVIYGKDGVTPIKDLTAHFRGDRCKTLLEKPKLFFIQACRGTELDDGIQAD
Caspase-7, sequence (P55210 207-303 limits assumed): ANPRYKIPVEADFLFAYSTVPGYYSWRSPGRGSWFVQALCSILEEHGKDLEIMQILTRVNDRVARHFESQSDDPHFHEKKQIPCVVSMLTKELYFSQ
Albumin, sequence (P02769 whole entry): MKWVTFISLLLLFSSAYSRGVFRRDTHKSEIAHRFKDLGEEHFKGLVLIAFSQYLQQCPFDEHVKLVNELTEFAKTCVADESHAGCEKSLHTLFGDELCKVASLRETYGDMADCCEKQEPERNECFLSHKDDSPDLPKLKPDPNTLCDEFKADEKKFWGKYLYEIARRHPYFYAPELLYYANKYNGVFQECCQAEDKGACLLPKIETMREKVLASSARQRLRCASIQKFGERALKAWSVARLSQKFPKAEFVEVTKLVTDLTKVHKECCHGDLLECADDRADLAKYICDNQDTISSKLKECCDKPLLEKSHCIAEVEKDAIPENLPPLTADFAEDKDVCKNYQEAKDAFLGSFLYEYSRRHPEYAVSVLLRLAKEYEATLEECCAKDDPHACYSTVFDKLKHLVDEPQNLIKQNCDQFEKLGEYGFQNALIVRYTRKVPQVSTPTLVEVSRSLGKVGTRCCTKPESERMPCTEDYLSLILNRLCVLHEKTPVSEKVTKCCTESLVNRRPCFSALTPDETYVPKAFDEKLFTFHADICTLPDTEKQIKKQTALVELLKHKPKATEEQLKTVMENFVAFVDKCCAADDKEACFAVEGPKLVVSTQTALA

Broadly, the EC50 is the concentration that produces a half-maximal response. As for `COC(=O)[C@@]12CCCCN1[C@H](c1ccc(-c3cccc(Cl)c3)c(OC)c1)[C@H]1C(=O)N(C)C(=O)[C@H]12`, the EC50 in [1] was 2.11 µM (active).

Broadly, the IC50 is the point on the concentration scale where inhibition reaches its midpoint. What is called AC50 is the concentration giving half of the maximal activity seen. With `Oc1c(Br)cc(Br)cc1/C=N/NC(=S)N[C@H]1CC2C=CC1C2` (some centres not stated), the EC50 in assay [2] was 0.109 µM (active); with Streptococcus, 0.448 µM (active); at Caspase-3, > 9.47 µM (active); at Caspase-7 it was > 85.3 µM (inactive). For the same molecule, the concentration for half-maximal inhibition (IC50) on NS3 was 7.8 µM (active); on Albumin it was > 94.1 µM (inactive). Also, in the assay with INS1, the AC50 is 2 µM (active).

In the case of `Cc1ccc(S(=O)(=O)N2CCc3cc(C(=O)NCCN(Cc4ccccc4)C(C)C)ccc3C2)cc1`, the IC50 on Mu-type opioid receptor was 15.1 µM (inactive); in [3], 0.0675 µM (active); in [4], 0.0467 µM (active); in [5] it was > 32 µM (inactive); in [6] it was < 0.0031 µM (active).

Turning to `CCOC(=O)C1=C(Cc2ccc(OC)cc2)C(=O)c2ccccc2C1=O`, the IC50 at Beta-galactosidase was > 66.6 µM (inactive); at Nonstructural protein 1 it was 42.9 µM (active); on Hexokinase HKDC1, 7.57 µM (active).

For `CN(Cc1ccccc1)C(=O)C1CCCN(Cc2ccc(C(F)(F)F)cc2)C1` (configuration not stated), in assay [7], the AC50 is 61.6 µM (active).

For the origin of these results see ChEMBL document CHEMBL1201862, “PubChem BioAssay data set” (2004).
